Test results: patent publication US20250066388A1, “1,3,4,7-TETRAHYDRO-2H-PYRROLO[3',2':5,6]PYRIDO[2,3-B][1,4]OXAZEPINE BCL-2 INHIBITORS” (AbbVie Inc., priority 2022, published 2025)

Tests used:
[1] = tested on: RS4;11 cells; assay: Cell viability assay (CellTiter-Glo) in RS4;11 cells; assay type: cell-based; details: 24 hours, 10% Human Serum
Protocol: The acute lymphoblastic leukemia (ALL) human cell line RS4;11 (ATCC, Manassas VA) was used as the primary human cell line to assess the cellular activity of compound of the present Examples in vitro and their efficacy in vivo. […] The acute lymphoblastic leukemia cell line Molt-4, which is derived from immature T-lymphoid cells (T-ALL), was used as a counter screen assay.
3000 Cells (0.1×10^6/mL) were seeded in each well of 384-well plate and were treated for 24 hours in a humidified chamber with 5% CO2. Cell viability was determined by CellTiter-Glo as described by the manufacturer's instructions (Promega Corporation, Madison, WI, USA).

[2] = tested on: Molt-4 cells; assay: Cell viability counter screen (CellTiter-Glo) in Molt-4 cells; assay type: cell-based; details: 24 hours, 10% Human Serum
Summary of the method: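 3000 cells/well (0.1×10^6/mL) were treated with compound for 24 hours in 5% CO2. Viability read by CellTiter-Glo luminescence; Molt-4 (T-ALL) served as the counter screen to RS4;11 (ALL).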

[3] = biological target: Bcl-2 protein (Homo sapiens (Human), UniProt P10415); assay: TR-FRET binding assay, Bcl-2; details: F-Bak peptide probe, GST-Bcl-2
[4] = biological target: Bcl-xL protein (Homo sapiens (Human), UniProt Q07817); assay: TR-FRET binding assay, Bcl-xL; details: F-Bak peptide probe
Bcl-xL protein, sequence (Q07817 other isoform, or with tags, fused parts or gaps): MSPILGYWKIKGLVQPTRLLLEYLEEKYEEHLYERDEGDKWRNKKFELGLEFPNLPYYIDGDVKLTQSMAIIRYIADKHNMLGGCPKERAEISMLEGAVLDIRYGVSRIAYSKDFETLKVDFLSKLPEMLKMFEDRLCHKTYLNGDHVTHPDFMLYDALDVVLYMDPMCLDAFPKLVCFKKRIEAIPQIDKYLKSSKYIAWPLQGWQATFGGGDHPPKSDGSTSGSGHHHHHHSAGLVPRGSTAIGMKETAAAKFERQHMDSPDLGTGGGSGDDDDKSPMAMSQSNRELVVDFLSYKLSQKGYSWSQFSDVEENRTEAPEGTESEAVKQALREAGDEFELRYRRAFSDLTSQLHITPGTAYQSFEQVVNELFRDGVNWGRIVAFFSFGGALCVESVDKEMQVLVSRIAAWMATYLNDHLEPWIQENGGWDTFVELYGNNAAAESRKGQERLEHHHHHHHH

Bcl-2 protein, sequence (P10415 other isoform, or with tags, fused parts or gaps): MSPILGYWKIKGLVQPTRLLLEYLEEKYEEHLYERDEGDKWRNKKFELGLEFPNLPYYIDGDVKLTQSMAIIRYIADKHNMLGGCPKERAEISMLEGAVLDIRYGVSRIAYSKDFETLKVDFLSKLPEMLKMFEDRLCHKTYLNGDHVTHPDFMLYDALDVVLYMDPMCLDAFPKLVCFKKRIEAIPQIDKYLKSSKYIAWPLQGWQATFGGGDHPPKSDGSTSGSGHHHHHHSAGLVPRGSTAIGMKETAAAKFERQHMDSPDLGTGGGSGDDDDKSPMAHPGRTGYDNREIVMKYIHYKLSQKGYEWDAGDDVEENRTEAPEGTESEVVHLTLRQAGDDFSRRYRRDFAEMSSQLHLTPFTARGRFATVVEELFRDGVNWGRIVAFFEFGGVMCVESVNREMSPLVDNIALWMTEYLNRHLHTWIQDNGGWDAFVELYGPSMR

Structure (SMILES)	EC50 [1]	EC50 [2]	Ki [3]	Ki [4]
CC1(C)CC(c2ccc(Cl)cc2)=C2CN3CCN(c4ccc(C(=O)NS(=O)(=O)c5ccc(NCC6(O)CCOCC6)c([N+](=O)[O-])c5)c(N5CCCOc6nc7[nH]ccc7cc65)c4)C[C@H]3COCCCO[C@@H]2C1 [Example 18, 4-((4aS,10aR)-14-(4-chlorophenyl)-12,12-dimethyl-1,2,4a,5,8,9,10a,11,13,15-decahydro-7H,12H-benzo[f]pyrazino[2,1-c][1,8]dioxa[4]azacycloundecin-3(4H)-yl)-2-(3,4-dihydro-2H-pyrrolo[3′,2′:5,6]pyrido[2,3-b][1,4]oxazepin-1(7H)-yl)-N-((4-(((4-hydroxytetrahydro-2H-pyran-4-yl)methyl)amino)-3-nitrophenyl)sulfonyl)benzamide]	1.43 nM	426 nM	0.223 nM	8.31 nM
CC1(C)CC(c2ccc(Cl)cc2)=C2CN3CCN(c4ccc(C(=O)NS(=O)(=O)c5ccc(OCC6(F)CCN(C7COC7)CC6)c([N+](=O)[O-])c5)c(N5CCCOc6nc7[nH]ccc7cc65)c4)C[C@H]3COCCCO[C@@H]2C1 [Example 19, 4-((4aS,10aR)-14-(4-chlorophenyl)-12,12-dimethyl-1,2,4a,5,8,9,10a,11,13,15-decahydro-7H,12H-benzo[f]pyrazino[2,1-c][1,8]dioxa[4]azacycloundecin-3(4H)-yl)-2-(3,4-dihydro-2H-pyrrolo[3′,2′:5,6]pyrido[2,3-b][1,4]oxazepin-1(7H)-yl)-N-((4-((4-fluoro-1-(oxetan-3-yl)piperidin-4-yl)methoxy)-3-nitrophenyl)sulfonyl)benzamide]	0.881 nM	132 nM	0.475 nM	2.23 nM
C[C@@H]1CO[C@@H](COc2ccc(S(=O)(=O)NC(=O)c3ccc(N4CCN5CC6=C(c7ccc(Cl)cc7)CC(C)(C)C[C@H]6OCCCOC[C@@H]5C4)cc3N3CCCOc4nc5[nH]ccc5cc43)cc2[N+](=O)[O-])CO1 [Example 20, 4-((4aS,10aR)-14-(4-chlorophenyl)-12,12-dimethyl-1,2,4a,5,8,9,10a,11,13,15-decahydro-7H,12H-benzo[f]pyrazino[2,1-c][1,8]dioxa[4]azacycloundecin-3(4H)-yl)-2-(3,4-dihydro-2H-pyrrolo[3′,2′:5,6]pyrido[2,3-b][1,4]oxazepin-1(7H)-yl)-N-((4-(((2R,5R)-5-methyl-1,4-dioxan-2-yl)methoxy)-3-nitrophenyl)sulfonyl)benzamide]	5.21 nM	1610 nM	0.977 nM	17.3 nM
CO[C@H]1C[C@@H](CNc2ccc(S(=O)(=O)NC(=O)c3ccc(N4CCN5CC6=C(c7ccc(Cl)cc7)CC(C)(C)C[C@H]6OCCCOC[C@@H]5C4)cc3N3CCCOc4nc5[nH]ccc5cc43)cc2[N+](=O)[O-])C1 [Example 24, 4-((4aS,10aR)-14-(4-chlorophenyl)-12,12-dimethyl-1,2,4a,5,8,9,10a,11,13,15-decahydro-7H,12H-benzo[f]pyrazino[2,1-c][1,8]dioxa[4]azacycloundecin-3(4H)-yl)-2-(3,4-dihydro-2H-pyrrolo[3′,2′:5,6]pyrido[2,3-b][1,4]oxazepin-1(7H)-yl)-N-((4-((((1s,3s)-3-methoxycyclobutyl)methyl)amino)-3-nitrophenyl)sulfonyl)benzamide]	4.9 nM	> 10000 nM	0.248 nM	10.3 nM
CC1(C)CC(c2ccc(Cl)cc2)=C2CN3CCN(c4ccc(C(=O)NS(=O)(=O)c5ccc(NC[C@H]6CC[C@H](N7CCOCC7)CC6)c([N+](=O)[O-])c5)c(N5CCCOc6nc7[nH]ccc7cc65)c4)C[C@H]3COCCCO[C@@H]2C1 [Example 28, 4-((4aS,10aR)-14-(4-chlorophenyl)-12,12-dimethyl-1,2,4a,5,8,9,10a,11,13,15-decahydro-7H,12H-benzo[f]pyrazino[2,1-c][1,8]dioxa[4]azacycloundecin-3(4H)-yl)-2-(3,4-dihydro-2H-pyrrolo[3′,2′:5,6]pyrido[2,3-b][1,4]oxazepin-1(7H)-yl)-N-((4-((((1r,4r)-4-morpholinocyclohexyl)methyl)amino)-3-nitrophenyl)sulfonyl)benzamide]	0.862 nM	274 nM	0.833 nM	4.71 nM
CO[C@H]1C[C@H](Nc2ccc(S(=O)(=O)NC(=O)c3ccc(N4CCN5CC6=C(c7ccc(Cl)cc7)CC(C)(C)C[C@H]6OCCCOC[C@@H]5C4)cc3N3CCCOc4nc5[nH]ccc5cc43)cc2[N+](=O)[O-])C1 [Example 30, 4-((4aS,10aR)-14-(4-chlorophenyl)-12,12-dimethyl-1,2,4a,5,8,9,10a,11,13,15-decahydro-7H,12H-benzo[f]pyrazino[2,1-c][1,8]dioxa[4]azacycloundecin-3(4H)-yl)-2-(3,4-dihydro-2H-pyrrolo[3′,2′:5,6]pyrido[2,3-b][1,4]oxazepin-1(7H)-yl)-N-((4-(((1r,3r)-3-methoxycyclobutyl)amino)-3-nitrophenyl)sulfonyl)benzamide]	4.1 nM	> 10000 nM	2.58 nM	39 nM
CN1CCC(Nc2ccc(S(=O)(=O)NC(=O)c3ccc(N4CCN5CC6=C(c7ccc(Cl)cc7)CC(C)(C)C[C@H]6OCCCOC[C@@H]5C4)cc3N3CCCOc4nc5[nH]ccc5cc43)cc2[N+](=O)[O-])CC1 [Example 31, 4-((4aS,10aR)-14-(4-chlorophenyl)-12,12-dimethyl-1,2,4a,5,8,9,10a,11,13,15-decahydro-7H,12H-benzo[f]pyrazino[2,1-c][1,8]dioxa[4]azacycloundecin-3(4H)-yl)-2-(3,4-dihydro-2H-pyrrolo[3′,2′:5,6]pyrido[2,3-b][1,4]oxazepin-1(7H)-yl)-N-((4-((1-methylpiperidin-4-yl)amino)-3-nitrophenyl)sulfonyl)benzamide]	3.24 nM	1220 nM	0.51 nM	5.75 nM
CO[C@H]1CC[C@H](COc2ccc(S(=O)(=O)NC(=O)c3ccc(N4CCN5CC6=C(c7ccc(Cl)cc7)CC(C)(C)C[C@H]6OCCCOC[C@@H]5C4)cc3N3CCCOc4nc5[nH]ccc5cc43)cc2[N+](=O)[O-])OC1 [Example 33, 4-((4aS,10aR)-14-(4-chlorophenyl)-12,12-dimethyl-1,2,4a,5,8,9,10a,11,13,15-decahydro-7H,12H-benzo[f]pyrazino[2,1-c][1,8]dioxa[4]azacycloundecin-3(4H)-yl)-2-(3,4-dihydro-2H-pyrrolo[3′,2′:5,6]pyrido[2,3-b][1,4]oxazepin-1(7H)-yl)-N-((4-(((2R,5S)-5-methoxytetrahydro-2H-pyran-2-yl)methoxy)-3-nitrophenyl)sulfonyl)benzamide]	3.49 nM	6080 nM	0.272 nM	28.6 nM
CC1(C)CC(c2ccc(Cl)cc2)=C2CN3CCN(c4ccc(C(=O)NS(=O)(=O)c5ccc(NC[C@H]6CC[C@@](C)(O)CC6)c([N+](=O)[O-])c5)c(N5CCCOc6nc7[nH]ccc7cc65)c4)C[C@H]3COCCCO[C@@H]2C1 [Example 36, 4-((4aS,10aR)-14-(4-chlorophenyl)-12,12-dimethyl-1,2,4a,5,8,9,10a,11,13,15-decahydro-7H,12H-benzo[f]pyrazino[2,1-c][1,8]dioxa[4]azacycloundecin-3(4H)-yl)-2-(3,4-dihydro-2H-pyrrolo[3′,2′:5,6]pyrido[2,3-b][1,4]oxazepin-1(7H)-yl)-N-((4-((((1s,4s)-4-hydroxy-4-methylcyclohexyl)methyl)amino)-3-nitrophenyl)sulfonyl)benzamide]	1.47 nM	117 nM	0.0607 nM	11.1 nM
CC1(C)CC(c2ccc(Cl)cc2)=C2CN3CCN(c4ccc(C(=O)NS(=O)(=O)c5ccc(NC[C@H]6CC[C@H](N7CCOCC7)CO6)c([N+](=O)[O-])c5)c(N5CCCOc6nc7[nH]ccc7cc65)c4)C[C@H]3COCCCO[C@@H]2C1 [Example 37, 4-((4aS,10aR)-14-(4-chlorophenyl)-12,12-dimethyl-1,2,4a,5,8,9,10a,11,13,15-decahydro-7H,12H-benzo[f]pyrazino[2,1-c][1,8]dioxa[4]azacycloundecin-3(4H)-yl)-2-(3,4-dihydro-2H-pyrrolo[3′,2′:5,6]pyrido[2,3-b][1,4]oxazepin-1(7H)-yl)-N-((4-((((2R,5S)-5-morpholinotetrahydro-2H-pyran-2-yl)methyl)amino)-3-nitrophenyl)sulfonyl)benzamide]	1.05 nM	1450 nM	0.109 nM	4.61 nM
CC1(C)CC(c2ccc(Cl)cc2)=C2CN3CCN(c4ccc(C(=O)NS(=O)(=O)c5ccc(NCC6(F)CCN(C7COC7)CC6)c([N+](=O)[O-])c5)c(N5CCCOc6nc7[nH]ccc7cc65)c4)C[C@H]3COCCCO[C@@H]2C1 [Example 39, 4-((4aS,10aR)-14-(4-chlorophenyl)-12,12-dimethyl-1,2,4a,5,8,9,10a,11,13,15-decahydro-7H,12H-benzo[f]pyrazino[2,1-c][1,8]dioxa[4]azacycloundecin-3(4H)-yl)-2-(3,4-dihydro-2H-pyrrolo[3′,2′:5,6]pyrido[2,3-b][1,4]oxazepin-1(7H)-yl)-N-((4-(((4-fluoro-1-(oxetan-3-yl)piperidin-4-yl)methyl)amino)-3-nitrophenyl)sulfonyl)benzamide]	1.66 nM	453 nM	0.194 nM	5.25 nM
